Where “and” joins values, the source holds several entries; their conditions need not be identical. Equal entries are not always repeated. Toxic doses and inconclusive results are not listed.
Test system: L1210 leukemia ip in BDF1 mice, survival T/C
Assay: NCI In Vivo Anticancer Drug Screen. Data for tumor model L1210 Leukemia (intraperitoneal) in B6D2F1 (BDF1) mice
Conditions: higher = longer survival
Summary of the method: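 Read-out is survival time, reported as the treated-group measurement over the vehicle-control measurement.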

NC(=S)N/N=C/c1ccc(O)cn1
T/C (endpoint: mean survival time, dose: 200.0 mg/kg/injection, schedule: Q## X008 (oral), vehicle: other): 111 % of control
T/C (endpoint: mean survival time, dose: 200.0 mg/kg/injection, schedule: Q## X016 (oral), vehicle: other): 106 % of control
T/C (endpoint: mean survival time, dose: 200.0 mg/kg/injection, schedule: Q## X024 (oral), vehicle: other): 102 % of control
T/C (endpoint: mean survival time, dose: 280.0 mg/kg/injection, schedule: Q01DX001 (ip), vehicle: saline with Tween-80): 118 % of control and 119 % of control
T/C (endpoint: mean survival time, dose: 300.0 mg/kg/injection, schedule: Q01DX001 (ip), vehicle: alkali diluted with saline): 108 % of control
T/C (endpoint: mean survival time, dose: 300.0 mg/kg/injection, schedule: Q01DX009 (ip), vehicle: saline with Tween-80): 107 % of control
T/C (endpoint: mean survival time, dose: 300.0 mg/kg/injection, schedule: Q08DX002 (ip), vehicle: alkali diluted with saline): 105 % of control
T/C (endpoint: mean survival time, dose: 400.0 mg/kg/injection, schedule: Q01DX001 (ip), vehicle: saline): 109 % of control
T/C (endpoint: mean survival time, dose: 400.0 mg/kg/injection, schedule: Q01DX001 (oral), vehicle: other): 105 % of control
T/C (endpoint: mean survival time, dose: 400.0 mg/kg/injection, schedule: Q01DX009 (oral), vehicle: carboxymethylcellulose (CMC)): 153 % of control
T/C (endpoint: mean survival time, dose: 400.0 mg/kg/injection, schedule: Q01DX009 (oral), vehicle: other): 156 % of control
T/C (endpoint: mean survival time, dose: 400.0 mg/kg/injection, schedule: Q01DX015 (ip), vehicle: carboxymethylcellulose (CMC)): 103 % of control
T/C (endpoint: mean survival time, dose: 400.0 mg/kg/injection, schedule: Q03HX024 (ip), vehicle: clinical formulation): 98 % of control
T/C (endpoint: mean survival time, dose: 400.0 mg/kg/injection, schedule: Q## X002 (oral), vehicle: other): 105 % of control
T/C (endpoint: mean survival time, dose: 400.0 mg/kg/injection, schedule: Q## X003 (ip), vehicle: other): 150 % of control
T/C (endpoint: mean survival time, dose: 400.0 mg/kg/injection, schedule: Q## X003 (oral), vehicle: other): 116 % of control
T/C (endpoint: mean survival time, dose: 400.0 mg/kg/injection, schedule: Q## X008 (oral), vehicle: other): 110 % of control
T/C (endpoint: mean survival time, dose: 400.0 mg/kg/injection, schedule: Q## X016 (oral), vehicle: other): 120 % of control
T/C (endpoint: mean survival time, dose: 400.0 mg/kg/injection, schedule: Q## X024 (oral), vehicle: other): 122 % of control
T/C (endpoint: mean survival time, dose: 427.0 mg/kg/injection, schedule: Q01DX001 (ip), vehicle: saline with Tween-80): 121 % of control and 122 % of control
T/C (endpoint: mean survival time, dose: 600.0 mg/kg/injection, schedule: Q01DX001 (ip), vehicle: alkali diluted with saline): 108 % of control
T/C (endpoint: mean survival time, dose: 600.0 mg/kg/injection, schedule: Q01DX005 (ip), vehicle: other): 97 % of control
T/C (endpoint: mean survival time, dose: 600.0 mg/kg/injection, schedule: Q01DX009 (ip), vehicle: other): 108 % of control
T/C (endpoint: mean survival time, dose: 600.0 mg/kg/injection, schedule: Q08DX002 (ip), vehicle: alkali diluted with saline): 105 % of control
T/C (endpoint: mean survival time, dose: 800.0 mg/kg/injection, schedule: Q01DX001 (oral), vehicle: other): 106 % of control
T/C (endpoint: mean survival time, dose: 800.0 mg/kg/injection, schedule: Q## X002 (oral), vehicle: other): 115 % of control
T/C (endpoint: mean survival time, dose: 800.0 mg/kg/injection, schedule: Q## X003 (oral), vehicle: other): 107 % of control
T/C (endpoint: mean survival time, dose: 800.0 mg/kg/injection, schedule: Q## X008 (oral), vehicle: other): 123 % of control
T/C (endpoint: mean survival time, dose: 800.0 mg/kg/injection, schedule: Q## X024 (oral), vehicle: other): 155 % of control
T/C (endpoint: mean survival time, dose: 833.0 mg/kg/injection, schedule: Q01DX001 (ip), vehicle: saline): 153 % of control
T/C (endpoint: mean survival time, dose: 1200.0 mg/kg/injection, schedule: Q01DX001 (ip), vehicle: other): 158 % of control
T/C (endpoint: mean survival time, dose: 1388.0 mg/kg/injection, schedule: Q01DX001 (ip), vehicle: saline): 157 % of control
T/C (endpoint: mean survival time, dose: 1600.0 mg/kg/injection, schedule: Q## X024 (ip), vehicle: other): 104 % of control
T/C (endpoint: mean survival time, dose: 2400.0 mg/kg/injection, schedule: Q01DX001 (ip), vehicle: saline): 150 % of control and 152 % of control
T/C (endpoint: mean survival time, dose: 2400.0 mg/kg/injection, schedule: Q## X016 (ip), vehicle: other): 100 % of control
T/C (endpoint: median survival time, dose: 37.5 mg/kg/injection, schedule: Q01DX009 (ip), vehicle: water): 155 % of control and 157 % of control
T/C (endpoint: median survival time, dose: 50.0 mg/kg/injection, schedule: Q01DX009 (ip), vehicle: other): 150 % of control
T/C (endpoint: median survival time, dose: 100.0 mg/kg/injection, schedule: Q04DX003 (ip), vehicle: other): 105 % of control
T/C (endpoint: median survival time, dose: 100.0 mg/kg/injection, schedule: Q04DX003 (sc), vehicle: other): 100 % of control
T/C (endpoint: median survival time, dose: 150.0 mg/kg/injection, schedule: Q01DX009 (ip), vehicle: water): 122 % of control and 124 % of control
T/C (endpoint: median survival time, dose: 200.0 mg/kg/injection, schedule: Q04DX003 (ip), vehicle: other): 120 % of control
T/C (endpoint: median survival time, dose: 300.0 mg/kg/injection, schedule: Q01DX009 (ip), vehicle: water): 105 % of control and 106 % of control
T/C (endpoint: median survival time, dose: 400.0 mg/kg/injection, schedule: Q04DX003 (ip), vehicle: other): 100 % of control
T/C (endpoint: median survival time, dose: 400.0 mg/kg/injection, schedule: Q04DX003 (sc), vehicle: other): 120 % of control
T/C (endpoint: median survival time, dose: 500.0 mg/kg/injection, schedule: Q01DX001 (ip), vehicle: saline): 150 % of control
T/C (endpoint: median survival time, dose: 1388.0 mg/kg/injection, schedule: Q01DX001 (ip), vehicle: saline): 157 % of control
